Data taken from patent US20250277012A1 (Protagonist Therapeutics, Inc., priority 2021, published 2025).
Read-outs that look alike come from different tables or passages of the source. Starred links: 1 amine or outer side, 2 acyl side, 3 side chain; linkers in the order of their positions; H or OH if unused. Positions of bridges follow the written chain, without caps; N, C: chain ends. Non-standard residues stand in square brackets, D forms with d. Residues, ends and D or L forms follow the SMILES beside them. Groups on a side chain read outwards from the residue. *: point of attachment. CH3O(CH2CH2O)11CH2CH2CO = COCCOCCOCCOCCOCCOCCOCCOCCOCCOCCOCCOCCC(=O)*; X1 = C[N+](C)(CCNC(=O)CCCCCCCCCCCCCCCCC(=O)O)CC(=O)*; Nva(5-morpholino) = N[C@@H](CCCN1CCOCC1)C(=O)O; C18 diacid = O=C(O)CCCCCCCCCCCCCCCCC(=O)*; Dip = N[C@H](C(=O)O)C(c1ccccc1)c1ccccc1; Phenylacetyl(4-F) = O=C(Cc1ccc(F)cc1)*; γGlu = O=C(O)[C@H](CCC(=O)[*:2])N[*:1]; Pro(3R-OH) = O=C(O)[C@H]1NCC[C@H]1O; Palmitoyl = CCCCCCCCCCCCCCCC(=O)*; NMeF = CN[C@@H](Cc1ccccc1)C(=O)O; NMeT = CN[C@H](C(=O)O)[C@@H](C)O; β3hF = N[C@H](CC(=O)O)Cc1ccccc1; NMeK = CN[C@@H](CCCCN)C(=O)O; Isovaleryl = CC(C)CC(=O)*; hCys = N[C@@H](CCS)C(=O)O; Dap = NC[C@H](N)C(=O)O; AEEA = NCCOCCOCC(=O)O; Ahx = NCCCCCC(=O)O

Legend:
ferroportin [1] = molecular target: T1, ferroportin (Homo sapiens, UniProt Q9NP59); assay: T47D cell-based ferroportin internalization assay in presence of mouse serum albumin (MSA); design: a human breast carcinoma adherent cell line which endogenously expresses ferroportin; host or cells: T47D
T1 sequence (Q9NP59 1-571): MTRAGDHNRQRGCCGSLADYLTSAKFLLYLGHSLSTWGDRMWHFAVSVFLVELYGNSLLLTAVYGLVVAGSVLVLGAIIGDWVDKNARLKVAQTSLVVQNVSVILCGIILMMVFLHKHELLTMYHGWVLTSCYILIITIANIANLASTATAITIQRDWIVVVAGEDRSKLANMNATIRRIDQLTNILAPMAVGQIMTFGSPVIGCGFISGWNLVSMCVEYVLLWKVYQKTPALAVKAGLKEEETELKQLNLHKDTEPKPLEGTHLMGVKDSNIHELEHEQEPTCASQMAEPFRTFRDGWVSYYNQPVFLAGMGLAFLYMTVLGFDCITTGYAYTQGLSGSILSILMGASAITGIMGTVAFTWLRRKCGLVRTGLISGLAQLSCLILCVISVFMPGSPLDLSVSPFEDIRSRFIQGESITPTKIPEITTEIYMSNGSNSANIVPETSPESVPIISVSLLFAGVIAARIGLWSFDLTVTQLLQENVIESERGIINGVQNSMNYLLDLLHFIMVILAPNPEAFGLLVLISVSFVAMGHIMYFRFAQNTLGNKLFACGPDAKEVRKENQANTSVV
Summary of the method: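 Peptide potency for inducing ferroportin internalization was measured in T47D cells in the presence of serum albumin. Cells grown in RPMI with fetal bovine serum were seeded in 96-well plates at 80-100 k cells per well in 100 ul and rested overnight. Dilution series of test peptides were preincubated 30 min at room temperature, then added to the cells after the medium was aspirated.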

ferroportin [2] = molecular target: T1, ferroportin; assay: FPN activity assay: ferroportin-GFP internalization/degradation in HEK293 cells; format: cell-based; design: expressed in transfected cells; conditions: read-out: FPN IC50
Experimental: Following internalization, the ferroporin protein is degraded.
A retro inverse peptide is a peptide with a reversed sequence in all D amino acids. An example is that Hy-Glu-Thr-His-NH2 becomes Hy-DHis-DThr-DGlu-NH2. The EC50 of these reference compounds for ferroportin internalization/degradation was determined according to the FPN activity assay described above. These peptides served as control standards.

[3] = Table 6E, T47D internalization assay with MSA
[4] = Table 6E, ferroportin-GFP internalization/degradation, at least 18 hours incubation
[5] = T47D internalization assay in presence of mouse serum albumin (MSA), Table 6E
[6] = ferroportin-GFP internalization/degradation, HEK293 cells, Table 6E
[7] = T47D cells, 0.5% mouse serum albumin, 1 hr incubation
[8] = ferroportin-GFP HEK293 cells, at least 18 hours

| Structure (SMILES) | IC50 (ferroportin [1]; [3]) | IC50 (ferroportin [1]; [5]) | DC50 (ferroportin [2]; [6]) | other results |
| --- | --- | --- | --- | --- |
| COC(=O)CC[C@H](NC(=O)CC(C)C)C(=O)N[C@@H](CO)C(=O)N[C@@H](Cc1c[nH]cn1)C(=O)N(C)[C@@H](Cc1ccccc1)C(=O)N1CCC[C@H]1C(=O)N[C@H]1CSSC[C@@H](C(=O)N(C)[C@@H](CCCCNC(=O)CCCCCNC(=O)C[N+](C)(C)CCNC(=O)CCCCCCCCCCCCCCCCC(=O)O)C(=O)N[C@H](C(=O)N[C@H](CCCCN)C(N)=O)C(c2ccccc2)c2ccccc2)NC1=O [compound 148] (Isovaleryl-E(OMe)SH[NMeF]PCC[NMeK]([Ahx-X1])[Dip][dK]-NH2; disulfide 6-7) | > 500 nM | – | – | DC50 (ferroportin [2]; [4]): > 500 nM |
| C[C@@H](O)[C@H](NC(=O)[C@H](CCC(=O)O)NC(=O)Cc1ccc(F)cc1)C(=O)N[C@@H](Cc1c[nH]cn1)C(=O)N[C@H](C(=O)N1CCC[C@H]1C(=O)N[C@H]1CSSC[C@@H](C(=O)N(C)[C@@H](CCCCNC(=O)COCCOCCNC(=O)COCCOCCNC(=O)[C@H](CN)NC(=O)CCCCCCCCCCCCCCCCC(=O)O)C(=O)N[C@H](CC(=O)N[C@H](CCCCN)C(N)=O)Cc2ccccc2)NC1=O)C(c1ccccc1)c1ccccc1 [compound 298] ({Phenylacetyl(4-F)}-ETH[Dip]PCC[NMeK]([AEEA-AEEA-Dap-C18 diacid])[β3hF][dK]-NH2; disulfide 6-7) | – | 10 to 100 nM | 10 to 100 nM | – |
| CC(C)CC(=O)N[C@@H](CCC(=O)O)C(=O)N[C@H](C(=O)N[C@@H](Cc1c[nH]cn1)C(=O)N[C@H](C(=O)N1CCC[C@H]1C(=O)N[C@H]1CSSC[C@@H](C(=O)N[C@@H](CCCCNC(=O)COCCOCCNC(=O)COCCOCCNC(=O)[C@H](CN)NC(=O)CCCCCCCCCCCCCCCCC(=O)O)C(=O)N[C@H](CC(=O)N[C@H](CCCCN)C(N)=O)Cc2ccccc2)NC1=O)C(c1ccccc1)c1ccccc1)[C@@H](C)O [Compd 41] (Isovaleryl-ETH[Dip]PCCK([AEEA-AEEA-Dap-C18 diacid])[β3hF][dK]-NH2; disulfide 6-7) | – | – | – | IC50 (ferroportin [1]; [7]): 10 to 100 nM; DC50 (ferroportin [2]; [8]): 10 to 100 nM |
| CC(C)CC(=O)N[C@@H](CCC(=O)O)C(=O)N[C@H](C(=O)N[C@@H](Cc1c[nH]cn1)C(=O)N[C@H](C(=O)N1CCC[C@H]1C(=O)N[C@H]1CCSSCC[C@@H](C(=O)N[C@@H](CCCCNC(=O)COCCOCCNC(=O)COCCOCCNC(=O)[C@H](CN)NC(=O)CCCCCCCCCCCCCCCCC(=O)O)C(=O)N[C@H](CC(=O)N[C@H](CCCCN)C(N)=O)Cc2ccccc2)NC1=O)C(c1ccccc1)c1ccccc1)[C@@H](C)O [compound 268] (Isovaleryl-ETH[Dip]P[hCys][hCys]K([AEEA-AEEA-Dap-C18 diacid])[β3hF][dK]-NH2; disulfide 6-7) | – | 10 to 100 nM | 10 to 100 nM | – |
| COC(=O)CC[C@H](NC(=O)CC(C)C)C(=O)N[C@H](C(=O)N[C@@H](Cc1c[nH]cn1)C(=O)N[C@H](C(=O)N1CCC[C@H]1C(=O)N[C@H]1CSSC[C@@H](C(=O)N(C)[C@@H](CCCCNC(=O)COCCOCCNC(=O)COCCOCCNC(=O)[C@H](CN)NC(=O)CCCCCCCCCCCCCCCCC(=O)O)C(=O)N[C@H](CC(N)=O)Cc2ccccc2)NC1=O)C(c1ccccc1)c1ccccc1)[C@@H](C)O [compound 256] (Isovaleryl-E(OMe)TH[Dip]PCC[NMeK]([AEEA-AEEA-Dap-C18 diacid])[β3hF]-NH2; disulfide 6-7) | – | 10 to 100 nM | 1 to 10 nM | – |
| CC(C)CC(=O)N[C@@H](CCC(=O)O)C(=O)N[C@H](C(=O)N[C@@H](Cc1c[nH]cn1)C(=O)N[C@H](C(=O)N1CCC[C@H]1C(=O)N[C@H]1CSSC[C@@H](C(=O)N(C)[C@@H](CCCCNC(=O)COCCOCCNC(=O)COCCOCCNC(=O)[C@H](CN)NC(=O)CCCCCCCCCCCCCCCCC(=O)O)C(=O)N[C@H](CC(=O)N[C@@H](CCCN2CCOCC2)C(N)=O)Cc2ccccc2)NC1=O)C(c1ccccc1)c1ccccc1)[C@@H](C)O [compound 265] (Isovaleryl-ETH[Dip]PCC[NMeK]([AEEA-AEEA-Dap-C18 diacid])[β3hF][Nva(5-morpholino)]-NH2; disulfide 6-7) | – | 10 to 100 nM | 10 to 100 nM | – |
| CC[C@H](C)[C@@H]1NC(=O)[C@@H](NC(=O)[C@@H]2CCCN2C(=O)[C@@H](NC(=O)[C@H](Cc2c[nH]cn2)NC(=O)[C@@H](NC(=O)[C@H](CCC(=O)O)NC(=O)CC(C)C)[C@@H](C)O)C(c2ccccc2)c2ccccc2)CSSC[C@@H](C(=O)N[C@H](CC(=O)N[C@@H](CCCCNC(=O)COCCOCCNC(=O)COCCOCCNC(=O)CCCCCNC(=O)CCCCCCCCCCCCCCCCC(=O)O)C(=O)N[C@H](CCCCN)C(N)=O)Cc2ccccc2)NC1=O [Compd 27] (Isovaleryl-ETH[Dip]PCIC[β3hF]K([AEEA-AEEA-Ahx-C18 diacid])[dK]-NH2; disulfide 6-8) | – | – | – | IC50 (ferroportin [1]; [7]): 10 to 100 nM; DC50 (ferroportin [2]; [8]): 10 to 100 nM |
| COCCOCCOCCOCCOCCOCCOCCOCCOCCOCCOCCOCCC(=O)NCCCC[C@@H](NC(=O)C[C@H](Cc1ccccc1)NC(=O)[C@H](CCCCNC(=O)COCCOCCNC(=O)COCCOCCNC(=O)[C@H](CN)NC(=O)CCCCCCCCCCCCCCCCC(=O)O)N(C)C(=O)[C@@H]1CSSC[C@H](NC(=O)[C@@H]2CCCN2C(=O)[C@@H](NC(=O)[C@H](Cc2c[nH]cn2)NC(=O)[C@@H](NC(=O)[C@H](CCC(=O)OC)NC(=O)CC(C)C)[C@@H](C)O)C(c2ccccc2)c2ccccc2)C(=O)N1)C(N)=O [compound 254] (Isovaleryl-E(OMe)TH[Dip]PCC[NMeK]([AEEA-AEEA-Dap-C18 diacid])[β3hF][dK](CH3O(CH2CH2O)11CH2CH2CO)-NH2; disulfide 6-7) | – | 10 to 100 nM | 10 to 100 nM | – |
| COC(=O)CCC(CCCC(C)C)C(=O)N[C@H](C(=O)N[C@@H](Cc1c[nH]cn1)C(=O)N[C@H](C(=O)N1CCC[C@H]1C(=O)N[C@H]1CSSC[C@@H](C(=O)N(C)[C@@H](CCCCNC(=O)CCCCCNC(=O)C[N+](C)(C)CCNC(=O)CCCCCCCCCCCCCCCCC(=O)O)C(=O)N[C@H](C(=O)N[C@H](CCCCN)C(N)=O)C(c2ccccc2)c2ccccc2)NC1=O)C(c1ccccc1)c1ccccc1)[C@@H](C)O (single isomer, unassigned) [compound 137] | 10 to 100 nM | – | – | DC50 (ferroportin [2]; [4]): 10 to 100 nM |
| CCCCCCCCCCCCCCCC(=O)NCCCCCC(=O)NCCCC[C@@H](C(=O)N[C@H](C(N)=O)C(c1ccccc1)c1ccccc1)N(C)C(=O)[C@@H]1CSSC[C@H](NC(=O)[C@@H]2CCCN2C(=O)[C@@H](NC(=O)[C@H](Cc2cnc[nH]2)NC(=O)[C@H]([C@@H](C)O)N(C)C(=O)[C@H](CCC(=O)O)NC(=O)CC(C)C)C(c2ccccc2)c2ccccc2)C(=O)N1 [compound 172] (Isovaleryl-E[NMeT]H[Dip]PCC[NMeK]([Ahx-Palmitoyl])[Dip]-NH2; disulfide 6-7) | 1 to 10 nM | – | – | – |
| COC(=O)CC[C@H](NC(=O)CC(C)C)C(=O)N1CC[C@@H](O)[C@H]1C(=O)N[C@@H](Cc1c[nH]cn1)C(=O)N[C@H](C(=O)N1CCC[C@H]1C(=O)N[C@H]1CSSC[C@@H](C(=O)N(C)[C@@H](CCCCNC(=O)CCCCCNC(=O)C[N+](C)(C)CCNC(=O)CCCCCCCCCCCCCCCCC(=O)O)C(=O)N[C@H](C(=O)N[C@H](CCCCN)C(N)=O)C(c2ccccc2)c2ccccc2)NC1=O)C(c1ccccc1)c1ccccc1 [compound 155] (Isovaleryl-E(OMe)[Pro(3R-OH)]H[Dip]PCC[NMeK]([Ahx-X1])[Dip][dK]-NH2; disulfide 6-7) | 10 to 100 nM | – | – | – |
| CCCCCCCCCCCCCCCC(=O)N[C@@H](CCC(=O)NCCCC[C@@H](C(=O)N[C@H](CC(=O)N[C@H](CCCCN)C(N)=O)Cc1ccccc1)N(C)C(=O)[C@@H]1CSSC[C@H](NC(=O)[C@@H]2CCCN2C(=O)[C@@H](NC(=O)[C@H](Cc2cnc[nH]2)NC(=O)[C@@H](NC(=O)[C@H](CCC(=O)O)NC(=O)CC(C)C)[C@@H](C)O)C(c2ccccc2)c2ccccc2)C(=O)N1)C(=O)O [compound 223] (Isovaleryl-ETH[Dip]PCC[NMeK]([γGlu-Palmitoyl])[β3hF][dK]-NH2; disulfide 6-7) | 1 to 10 nM | – | – | – |
| COC(=O)CC[C@H](NC(=O)CC(C)C)C(=O)N[C@H](C(=O)N[C@@H](Cc1c[nH]cn1)C(=O)N[C@H](C(=O)N1CCC[C@H]1C(=O)N[C@H]1CSSC[C@@H](C(=O)N(C)[C@@H](CCCCNC(=O)COCCOCCNC(=O)COCCOCCNC(=O)C[N+](C)(C)CCNC(=O)CCCCCCCCCCCCCCCCC(=O)O)C(=O)N[C@H](CC(=O)N[C@H](CCCCN)C(N)=O)Cc2ccccc2)NC1=O)C(c1ccccc1)c1ccccc1)[C@@H](C)O [compound 231] (Isovaleryl-E(OMe)TH[Dip]PCC[NMeK]([AEEA-AEEA-X1])[β3hF][dK]-NH2; disulfide 6-7) | – | 10 to 100 nM | – | – |
